In paper PMC8213057, “Targeting ALK2: An Open Science Approach to Developing Therapeutics for the Treatment of Diffuse Intrinsic Pontine Glioma” (Journal of Medicinal Chemistry, 2020):
“And” between values parts separate entries of the source, which are not always exact repeats. Equal entries are not always repeated.

What was measured:
[1] = biological target: CYP2D6
[2] = system: HGK/MAP4K4
[3] = system: SIK2
[4] = biological target: T1, AXL (Homo sapiens, UniProt P30530); settings: 1 μM; Run 1, Run 2
T1 sequence (P30530 26-894): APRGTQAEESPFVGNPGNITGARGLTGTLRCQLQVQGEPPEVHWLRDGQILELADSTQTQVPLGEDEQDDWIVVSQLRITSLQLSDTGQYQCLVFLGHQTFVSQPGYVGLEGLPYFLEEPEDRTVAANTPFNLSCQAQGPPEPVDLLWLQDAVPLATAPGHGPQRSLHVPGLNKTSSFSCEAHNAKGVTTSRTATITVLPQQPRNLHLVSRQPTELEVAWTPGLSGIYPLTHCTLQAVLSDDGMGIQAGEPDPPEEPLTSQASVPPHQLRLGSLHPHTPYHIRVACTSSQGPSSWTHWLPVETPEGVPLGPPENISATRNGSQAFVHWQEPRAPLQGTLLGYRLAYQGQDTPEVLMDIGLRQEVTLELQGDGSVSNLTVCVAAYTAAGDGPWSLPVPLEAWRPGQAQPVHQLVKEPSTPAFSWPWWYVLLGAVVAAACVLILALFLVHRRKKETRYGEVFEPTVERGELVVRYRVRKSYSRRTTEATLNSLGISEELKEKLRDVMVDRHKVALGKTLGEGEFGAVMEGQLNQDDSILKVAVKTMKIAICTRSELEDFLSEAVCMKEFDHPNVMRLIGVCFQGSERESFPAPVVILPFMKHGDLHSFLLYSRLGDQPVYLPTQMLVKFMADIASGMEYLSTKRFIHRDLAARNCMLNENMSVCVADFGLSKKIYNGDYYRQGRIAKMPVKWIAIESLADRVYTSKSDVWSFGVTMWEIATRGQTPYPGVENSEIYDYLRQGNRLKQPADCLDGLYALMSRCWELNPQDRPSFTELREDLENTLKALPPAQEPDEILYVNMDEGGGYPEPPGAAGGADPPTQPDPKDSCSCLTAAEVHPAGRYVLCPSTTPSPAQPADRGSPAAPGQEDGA

[5] = biological target: CAMK1a (Homo sapiens, UniProt Q14012); settings: 1 μM; Run 1, Run 2
[6] = biological target: CDK1/cyclin B (Homo sapiens, UniProt P06493); settings: 1 μM; Run 1, Run 2
[7] = biological target: CDK2/Cyclin A1 (Homo sapiens, UniProt P24941); settings: 1 μM; Run 1, Run 2
[8] = biological target: EGFR (Homo sapiens, UniProt P00533); settings: 1 μM; Run 1, Run 2
[9] = biological target: ERN1/IRE1 (Homo sapiens, UniProt O75460); settings: 1 μM; Run 1, Run 2
[10] = biological target: FLT4/VEGFR3 (Homo sapiens, UniProt P35916); settings: 1 μM; Run 1, Run 2
[11] = biological target: T2, DRAK1/STK17A (Homo sapiens, UniProt Q9UEE5); test: biochemical; settings: read-out: % enzyme activity, 1 μM; Run 1, Run 2
T2 sequence (Q9UEE5 1-414): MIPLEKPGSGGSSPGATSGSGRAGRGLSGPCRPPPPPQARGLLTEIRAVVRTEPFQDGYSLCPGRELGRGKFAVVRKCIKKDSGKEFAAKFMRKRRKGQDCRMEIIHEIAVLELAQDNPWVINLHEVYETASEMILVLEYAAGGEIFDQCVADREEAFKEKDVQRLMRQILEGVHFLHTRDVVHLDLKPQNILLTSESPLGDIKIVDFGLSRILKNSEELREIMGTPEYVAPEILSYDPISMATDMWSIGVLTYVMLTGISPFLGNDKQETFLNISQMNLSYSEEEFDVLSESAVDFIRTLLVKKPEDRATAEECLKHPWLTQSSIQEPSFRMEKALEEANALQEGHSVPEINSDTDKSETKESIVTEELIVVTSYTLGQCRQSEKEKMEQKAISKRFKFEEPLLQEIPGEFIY

[12] = biological target: DYRK1B (Homo sapiens, UniProt Q9Y463); test: biochemical; settings: read-out: % enzyme activity, 1 μM; Run 1, Run 2
[13] = biological target: EPHA7 (Homo sapiens, UniProt Q15375); test: biochemical; settings: read-out: % enzyme activity, 1 μM; Run 1, Run 2
[14] = biological target: T3, Haspin (Homo sapiens, UniProt Q8TF76); test: biochemical; settings: read-out: % enzyme activity, 1 μM; Run 1, Run 2
T3 sequence (Q8TF76 1-798): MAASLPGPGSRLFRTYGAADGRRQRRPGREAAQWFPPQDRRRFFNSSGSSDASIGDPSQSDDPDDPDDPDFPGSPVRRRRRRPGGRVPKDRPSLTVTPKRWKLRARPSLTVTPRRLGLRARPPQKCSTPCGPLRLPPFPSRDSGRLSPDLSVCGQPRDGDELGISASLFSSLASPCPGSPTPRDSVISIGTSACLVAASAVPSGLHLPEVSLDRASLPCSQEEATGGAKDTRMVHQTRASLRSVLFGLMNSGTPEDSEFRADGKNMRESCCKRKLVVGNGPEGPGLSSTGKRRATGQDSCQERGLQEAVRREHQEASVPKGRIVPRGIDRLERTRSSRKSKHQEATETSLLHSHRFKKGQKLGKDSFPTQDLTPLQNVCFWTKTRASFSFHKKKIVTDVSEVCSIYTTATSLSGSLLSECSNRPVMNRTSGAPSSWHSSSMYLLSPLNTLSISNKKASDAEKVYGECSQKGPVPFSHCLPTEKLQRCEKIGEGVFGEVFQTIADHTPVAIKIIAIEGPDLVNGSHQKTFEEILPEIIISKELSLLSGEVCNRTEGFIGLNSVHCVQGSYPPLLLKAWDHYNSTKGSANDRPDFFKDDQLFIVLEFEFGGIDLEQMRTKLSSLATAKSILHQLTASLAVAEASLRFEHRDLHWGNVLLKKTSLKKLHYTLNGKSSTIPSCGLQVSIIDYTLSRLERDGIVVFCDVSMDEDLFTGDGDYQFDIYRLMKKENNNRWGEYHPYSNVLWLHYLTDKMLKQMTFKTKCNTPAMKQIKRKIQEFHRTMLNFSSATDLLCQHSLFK

[15] = biological target: JAK2 (Homo sapiens, UniProt O60674); test: biochemical; settings: read-out: % enzyme activity, 1 μM; Run 1, Run 2
[16] = biological target: PHKg1 (Homo sapiens, UniProt Q16816); test: biochemical; settings: read-out: % enzyme activity, 1 μM; Run 1, Run 2
[17] = biological target: STK39/STLK3 (Homo sapiens, UniProt Q9UEW8); test: biochemical; settings: read-out: % enzyme activity, 1 μM; Run 1, Run 2

Sequence of FLT4/VEGFR3 (P35916 25-1363): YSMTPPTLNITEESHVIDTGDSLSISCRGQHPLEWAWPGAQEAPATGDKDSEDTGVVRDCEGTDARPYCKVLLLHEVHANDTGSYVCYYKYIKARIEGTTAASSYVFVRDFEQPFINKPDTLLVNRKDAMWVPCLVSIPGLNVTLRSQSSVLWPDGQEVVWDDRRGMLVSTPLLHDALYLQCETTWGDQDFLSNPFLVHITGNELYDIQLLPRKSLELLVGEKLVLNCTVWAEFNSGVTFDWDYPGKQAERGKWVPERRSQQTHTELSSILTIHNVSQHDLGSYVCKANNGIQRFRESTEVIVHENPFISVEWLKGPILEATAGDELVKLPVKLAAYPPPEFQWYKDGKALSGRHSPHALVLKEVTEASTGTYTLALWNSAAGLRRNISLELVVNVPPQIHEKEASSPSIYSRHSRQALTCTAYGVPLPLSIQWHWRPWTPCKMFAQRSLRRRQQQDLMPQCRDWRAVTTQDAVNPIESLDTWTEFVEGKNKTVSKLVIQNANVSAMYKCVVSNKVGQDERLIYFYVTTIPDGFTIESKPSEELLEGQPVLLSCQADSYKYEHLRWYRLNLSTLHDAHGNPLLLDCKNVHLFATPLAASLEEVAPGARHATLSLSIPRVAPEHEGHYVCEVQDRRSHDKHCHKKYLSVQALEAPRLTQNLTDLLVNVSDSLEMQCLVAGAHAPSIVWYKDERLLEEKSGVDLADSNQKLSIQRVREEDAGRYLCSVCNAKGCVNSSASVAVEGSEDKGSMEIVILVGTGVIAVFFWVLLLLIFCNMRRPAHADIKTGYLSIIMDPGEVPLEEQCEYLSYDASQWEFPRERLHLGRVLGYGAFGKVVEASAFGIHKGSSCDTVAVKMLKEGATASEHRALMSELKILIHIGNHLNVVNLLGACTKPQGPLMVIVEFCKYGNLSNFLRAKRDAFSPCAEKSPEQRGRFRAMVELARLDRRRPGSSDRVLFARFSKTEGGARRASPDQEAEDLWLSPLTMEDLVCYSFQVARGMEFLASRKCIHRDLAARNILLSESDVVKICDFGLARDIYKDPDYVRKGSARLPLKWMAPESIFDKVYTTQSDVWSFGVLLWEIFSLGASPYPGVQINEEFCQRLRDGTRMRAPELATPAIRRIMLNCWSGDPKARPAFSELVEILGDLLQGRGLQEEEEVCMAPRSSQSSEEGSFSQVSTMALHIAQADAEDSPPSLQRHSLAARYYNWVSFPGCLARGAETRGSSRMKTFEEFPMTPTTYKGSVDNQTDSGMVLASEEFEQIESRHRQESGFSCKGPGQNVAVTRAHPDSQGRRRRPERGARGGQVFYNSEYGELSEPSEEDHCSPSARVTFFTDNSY
Sequence of JAK2 (O60674 whole entry): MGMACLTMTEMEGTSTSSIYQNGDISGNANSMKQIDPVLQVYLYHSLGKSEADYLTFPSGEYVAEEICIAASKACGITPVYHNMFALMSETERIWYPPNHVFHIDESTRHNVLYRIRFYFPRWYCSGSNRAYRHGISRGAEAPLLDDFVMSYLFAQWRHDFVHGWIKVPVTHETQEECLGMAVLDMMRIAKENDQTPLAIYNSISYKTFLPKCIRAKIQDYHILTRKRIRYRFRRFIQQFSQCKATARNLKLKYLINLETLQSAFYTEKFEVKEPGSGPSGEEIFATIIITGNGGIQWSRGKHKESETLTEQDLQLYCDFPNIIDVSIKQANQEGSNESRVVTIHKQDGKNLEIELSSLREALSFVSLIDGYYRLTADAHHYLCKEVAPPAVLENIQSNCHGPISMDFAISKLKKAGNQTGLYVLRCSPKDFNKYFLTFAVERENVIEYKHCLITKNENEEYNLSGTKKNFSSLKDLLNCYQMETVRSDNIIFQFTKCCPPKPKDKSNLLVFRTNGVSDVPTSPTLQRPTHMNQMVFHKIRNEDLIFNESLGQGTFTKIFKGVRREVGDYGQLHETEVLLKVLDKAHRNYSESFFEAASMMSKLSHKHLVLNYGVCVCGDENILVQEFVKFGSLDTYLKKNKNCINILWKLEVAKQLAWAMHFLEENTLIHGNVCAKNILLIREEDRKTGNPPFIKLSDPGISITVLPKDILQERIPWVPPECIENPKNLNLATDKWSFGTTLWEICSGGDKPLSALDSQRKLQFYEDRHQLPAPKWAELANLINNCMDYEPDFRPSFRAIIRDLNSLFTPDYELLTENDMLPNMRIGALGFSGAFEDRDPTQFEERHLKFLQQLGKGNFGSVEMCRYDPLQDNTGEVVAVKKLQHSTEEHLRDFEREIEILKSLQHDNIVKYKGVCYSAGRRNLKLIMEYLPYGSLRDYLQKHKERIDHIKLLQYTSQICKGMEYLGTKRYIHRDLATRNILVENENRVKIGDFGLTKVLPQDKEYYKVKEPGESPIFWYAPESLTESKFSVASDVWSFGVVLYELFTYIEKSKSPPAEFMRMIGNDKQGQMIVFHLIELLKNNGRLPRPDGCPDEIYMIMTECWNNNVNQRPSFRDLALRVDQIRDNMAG
Sequence of EGFR (P00533 25-1210): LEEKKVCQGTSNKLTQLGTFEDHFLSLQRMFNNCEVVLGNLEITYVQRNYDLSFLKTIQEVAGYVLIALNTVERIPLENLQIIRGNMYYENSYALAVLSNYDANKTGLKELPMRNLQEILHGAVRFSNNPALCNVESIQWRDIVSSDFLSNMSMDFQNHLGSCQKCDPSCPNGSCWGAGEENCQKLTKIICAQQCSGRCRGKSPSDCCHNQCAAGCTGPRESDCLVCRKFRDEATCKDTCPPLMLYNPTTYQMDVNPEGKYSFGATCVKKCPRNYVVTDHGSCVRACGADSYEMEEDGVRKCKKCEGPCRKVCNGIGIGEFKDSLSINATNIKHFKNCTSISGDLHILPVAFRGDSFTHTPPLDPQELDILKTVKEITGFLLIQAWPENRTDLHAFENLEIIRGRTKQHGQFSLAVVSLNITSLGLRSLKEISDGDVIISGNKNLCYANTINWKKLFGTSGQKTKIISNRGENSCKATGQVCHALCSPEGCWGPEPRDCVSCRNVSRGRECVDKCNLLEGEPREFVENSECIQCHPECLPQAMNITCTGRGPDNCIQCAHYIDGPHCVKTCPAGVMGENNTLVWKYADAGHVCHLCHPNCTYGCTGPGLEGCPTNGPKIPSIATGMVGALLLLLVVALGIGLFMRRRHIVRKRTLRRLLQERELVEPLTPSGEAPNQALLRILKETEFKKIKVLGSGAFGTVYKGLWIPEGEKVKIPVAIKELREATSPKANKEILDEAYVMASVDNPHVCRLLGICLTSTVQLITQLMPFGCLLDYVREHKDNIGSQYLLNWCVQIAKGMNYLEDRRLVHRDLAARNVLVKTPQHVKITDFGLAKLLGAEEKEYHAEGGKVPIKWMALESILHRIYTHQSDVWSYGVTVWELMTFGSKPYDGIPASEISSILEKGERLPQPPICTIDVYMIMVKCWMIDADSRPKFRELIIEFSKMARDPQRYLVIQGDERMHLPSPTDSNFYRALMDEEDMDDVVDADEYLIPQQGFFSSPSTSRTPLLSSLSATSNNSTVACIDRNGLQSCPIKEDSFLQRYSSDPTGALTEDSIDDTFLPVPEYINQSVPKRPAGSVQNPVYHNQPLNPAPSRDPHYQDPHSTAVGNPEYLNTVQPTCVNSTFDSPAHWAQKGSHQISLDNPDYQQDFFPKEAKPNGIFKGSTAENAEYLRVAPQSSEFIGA
Sequence of ERN1/IRE1 (O75460 19-977): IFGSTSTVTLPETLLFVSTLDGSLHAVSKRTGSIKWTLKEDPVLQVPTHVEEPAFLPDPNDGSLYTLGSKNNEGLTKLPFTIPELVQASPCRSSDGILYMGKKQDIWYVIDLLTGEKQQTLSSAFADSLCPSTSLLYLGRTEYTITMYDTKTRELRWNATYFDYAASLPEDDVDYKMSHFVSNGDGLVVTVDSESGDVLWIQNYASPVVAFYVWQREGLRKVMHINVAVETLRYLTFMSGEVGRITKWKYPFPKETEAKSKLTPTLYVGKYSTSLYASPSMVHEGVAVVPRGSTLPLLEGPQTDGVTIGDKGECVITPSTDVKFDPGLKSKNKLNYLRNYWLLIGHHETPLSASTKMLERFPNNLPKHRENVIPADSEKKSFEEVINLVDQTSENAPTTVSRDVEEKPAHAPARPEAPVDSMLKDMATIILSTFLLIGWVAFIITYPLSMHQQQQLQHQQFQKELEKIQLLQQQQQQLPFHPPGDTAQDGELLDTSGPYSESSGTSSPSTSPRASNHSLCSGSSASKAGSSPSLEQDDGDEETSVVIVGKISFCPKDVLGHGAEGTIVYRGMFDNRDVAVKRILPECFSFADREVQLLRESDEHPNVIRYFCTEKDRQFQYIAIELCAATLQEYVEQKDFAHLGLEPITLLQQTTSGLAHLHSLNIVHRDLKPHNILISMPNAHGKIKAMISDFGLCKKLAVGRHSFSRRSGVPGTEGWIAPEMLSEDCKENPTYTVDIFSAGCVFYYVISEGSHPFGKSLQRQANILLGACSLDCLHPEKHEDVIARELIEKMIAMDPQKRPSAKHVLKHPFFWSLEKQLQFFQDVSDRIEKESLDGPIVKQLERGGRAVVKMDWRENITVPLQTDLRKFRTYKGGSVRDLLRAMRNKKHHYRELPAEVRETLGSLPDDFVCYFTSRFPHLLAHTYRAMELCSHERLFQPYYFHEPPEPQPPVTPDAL
Sequence of PHKg1 (Q16816 whole entry): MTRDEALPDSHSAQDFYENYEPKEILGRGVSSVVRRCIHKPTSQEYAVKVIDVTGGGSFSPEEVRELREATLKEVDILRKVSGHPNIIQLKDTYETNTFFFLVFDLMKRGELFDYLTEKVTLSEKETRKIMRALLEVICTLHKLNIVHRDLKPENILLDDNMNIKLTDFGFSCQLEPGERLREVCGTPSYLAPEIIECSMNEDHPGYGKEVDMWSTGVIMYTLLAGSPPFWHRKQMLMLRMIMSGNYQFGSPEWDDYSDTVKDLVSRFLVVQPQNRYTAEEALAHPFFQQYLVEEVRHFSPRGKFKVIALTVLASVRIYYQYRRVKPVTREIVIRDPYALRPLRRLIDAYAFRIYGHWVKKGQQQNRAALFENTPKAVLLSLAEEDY

| SMILES | CYP inhibition [1] [µM] | % enzyme activity at 1 μM [2] | % enzyme activity at 1 μM [3] | % enzyme activity [4] [%] | % enzyme activity [5] [%] | % enzyme activity [6] [%] | % enzyme activity [7] [%] | % enzyme activity [8] [%] | % enzyme activity [9] [%] | % enzyme activity [10] [%] | remaining activity at 1 µM [11] [%] | remaining activity at 1 µM [12] [%] | remaining activity at 1 µM [13] [%] | remaining activity at 1 µM [14] [%] | remaining activity at 1 µM [15] [%] | remaining activity at 1 µM [16] [%] | remaining activity at 1 µM [17] [%] |
| --- | --- | --- | --- | --- | --- | --- | --- | --- | --- | --- | --- | --- | --- | --- | --- | --- | --- |
| COc1cc(-c2cncc(-c3ccc(N4CCN(C)CC4)cc3)c2C)cc(F)c1C(N)=O [Compound 26a, 2-Fluoro-6-methoxy-4-(4-methyl-5-(4-(4-methylpiperazin-1-yl)phenyl)pyridin-3-yl)benzamide] | > 50 | 22% and 21% | 32% and 30.7% | 81.59 | 92.25 | 92.35 | 99.67 | 95.66 | 92.47 | 97.81 | 96.4 | 40.6 | 101 | 83.3 | 93.5 | 85.6 | 89.1 |
| COc1cc(-c2cncc(-c3ccc(N4C[C@@H](C)N(C)[C@@H](C)C4)cc3)c2C)cc(F)c1C(N)=O [Compound 26c, 2-Fluoro-6-methoxy-4-(4-methyl-5-(4-((3R,5S)-3,4,5-trimethylpiperazin-1-yl)phenyl)pyridin-3-yl)benzamide] | > 50 | 30.6% and 28.4% | 43.9% and 43.5% | 86.95 | 96.82 | 91.98 | 97.14 | 93.91 | 90.44 | 96.61 | 96.6 | 59.2 | 98.4 | 84.8 | 88.6 | 97 | 95.7 |
